Results taken from patent publication US20090181986A1, “SUBSTITUTED HETEROCYCLIC COMPOUNDS” (priority 2007, published 2009).

How the values were obtained:
[1] = biological target: wild-type human cardiac sodium channel, hNav1.5 (Homo sapiens, UniProt Q14524); assay: Late INa screening assay (PatchXpress whole cell patch clamp, late current generated with Tefluthrin or ATX II); type: cell-based; conditions: for Late INa % blk / inhibition at 10 µM: test compound at 10 μM; for inhibition at 10 µM: read-out: Late INa % blk; for effect on late sodium current: late INa assay, compounds tested at 10 μM
Chain of wild-type human cardiac sodium channel, hNav1.5 (Q14524 whole entry): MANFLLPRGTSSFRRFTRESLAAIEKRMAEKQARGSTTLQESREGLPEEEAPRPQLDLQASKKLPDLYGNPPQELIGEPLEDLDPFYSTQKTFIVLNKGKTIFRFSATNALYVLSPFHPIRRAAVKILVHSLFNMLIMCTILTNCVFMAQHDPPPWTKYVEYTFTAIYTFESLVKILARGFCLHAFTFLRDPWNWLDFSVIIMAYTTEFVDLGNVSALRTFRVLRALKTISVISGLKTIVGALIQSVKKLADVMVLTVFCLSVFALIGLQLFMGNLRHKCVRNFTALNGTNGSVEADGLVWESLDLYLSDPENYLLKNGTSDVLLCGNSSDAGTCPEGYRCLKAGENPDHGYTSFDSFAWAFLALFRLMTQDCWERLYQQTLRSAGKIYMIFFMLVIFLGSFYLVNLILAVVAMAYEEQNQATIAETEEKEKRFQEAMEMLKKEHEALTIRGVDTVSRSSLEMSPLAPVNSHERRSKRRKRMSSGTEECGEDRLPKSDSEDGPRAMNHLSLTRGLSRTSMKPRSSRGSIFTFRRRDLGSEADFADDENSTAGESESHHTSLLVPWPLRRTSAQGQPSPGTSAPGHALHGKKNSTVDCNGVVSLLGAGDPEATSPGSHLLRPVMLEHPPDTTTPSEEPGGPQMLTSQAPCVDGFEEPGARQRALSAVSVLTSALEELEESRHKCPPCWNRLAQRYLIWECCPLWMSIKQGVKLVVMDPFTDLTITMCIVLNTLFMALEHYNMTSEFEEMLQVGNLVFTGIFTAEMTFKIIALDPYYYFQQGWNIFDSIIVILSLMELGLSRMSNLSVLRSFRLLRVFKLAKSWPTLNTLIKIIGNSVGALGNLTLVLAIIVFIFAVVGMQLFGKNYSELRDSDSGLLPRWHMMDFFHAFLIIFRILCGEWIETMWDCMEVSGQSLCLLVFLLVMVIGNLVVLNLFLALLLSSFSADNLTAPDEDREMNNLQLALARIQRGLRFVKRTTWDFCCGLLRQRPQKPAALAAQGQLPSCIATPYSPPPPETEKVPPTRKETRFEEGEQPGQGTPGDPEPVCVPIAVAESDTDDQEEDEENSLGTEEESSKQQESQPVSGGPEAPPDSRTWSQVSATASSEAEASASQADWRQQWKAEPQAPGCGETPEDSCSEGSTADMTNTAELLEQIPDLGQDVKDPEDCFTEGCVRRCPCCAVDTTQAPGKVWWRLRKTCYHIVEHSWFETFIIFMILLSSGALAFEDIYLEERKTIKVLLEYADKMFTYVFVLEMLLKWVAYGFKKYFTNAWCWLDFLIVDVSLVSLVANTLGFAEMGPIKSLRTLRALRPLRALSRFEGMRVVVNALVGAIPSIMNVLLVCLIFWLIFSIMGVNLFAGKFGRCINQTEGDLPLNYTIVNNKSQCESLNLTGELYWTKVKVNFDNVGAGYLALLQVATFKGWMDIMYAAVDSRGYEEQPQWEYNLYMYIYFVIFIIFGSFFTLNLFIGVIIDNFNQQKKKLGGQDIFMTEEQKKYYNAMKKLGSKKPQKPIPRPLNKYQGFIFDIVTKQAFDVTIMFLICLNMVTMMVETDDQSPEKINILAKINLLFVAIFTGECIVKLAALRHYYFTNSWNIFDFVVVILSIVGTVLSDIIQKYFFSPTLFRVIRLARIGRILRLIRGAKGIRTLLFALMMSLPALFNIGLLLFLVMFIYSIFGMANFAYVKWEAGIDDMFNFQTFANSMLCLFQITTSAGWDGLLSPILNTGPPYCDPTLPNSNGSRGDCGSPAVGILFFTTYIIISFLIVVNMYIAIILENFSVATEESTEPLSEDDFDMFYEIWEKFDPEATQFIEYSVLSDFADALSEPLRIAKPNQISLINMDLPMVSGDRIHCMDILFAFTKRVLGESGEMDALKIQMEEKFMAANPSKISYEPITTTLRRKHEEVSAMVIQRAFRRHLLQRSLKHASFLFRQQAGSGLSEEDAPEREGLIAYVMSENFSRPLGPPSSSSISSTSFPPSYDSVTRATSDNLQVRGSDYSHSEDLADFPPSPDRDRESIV
Experimental: The late sodium current (Late INa) and peak sodium current (Peak INa) assays are performed on an automated electrophysiology platform, PatchXpress 7000A (MDS Analytical Technologies, Sunnyvale, Calif.), which uses the whole cell patch clump technique to measure currents through the cell membrane of up to 16 cells at a time. The assay uses an HEK293 (human embryonic kidney) cell line heterologously expressing the wild-type human cardiac sodium channel, hNav1.5, purchased from Millipore (Billerica, Mass.). No beta subunits were coexpressed with the Na channel alpha subunit. […] Experiments are carried out at 24-27° C.
For both the Late INa and Peak INa assays, series resistance compensation is set to 50% and whole-cell compensation is performed automatically. […] Currents through open sodium channels are automatically recorded and stored in the DataXpress2 database (MDS Analytical Technologies, Sunnyvale, Calif.). Analysis is performed using DataXpress2 analysis software and data are compiled in Excel.
Compound stocks are routinely made in glass vials to 10 mM in dimethyl sulfoxide (DMSO). In some cases, when compounds are not soluble in DMSO, they are made in 100% ethanol. Stocks are sonicated as necessary. The extracellular solution for screening Late INa is composed of: 140 mM NaCl, 4 mM KCl, 1.8 mM CaCl2, 0.75 mM MgCl2, and 5 mM HEPES with pH adjusted to 7.4 using NaOH. The extracellular solution for screening Peak INa is composed of: 20 mM NaCl, 120 mM N-methyl-D glucamine, 4 mM KCl, 1.8 mM CaCl2, 0.75 mM MgCl2, and 5 mM HEPES with pH adjusted to 7.4 using HCl. The intracellular solution used to perfuse the inside of the cells for both the Late INa and Peak INa assays contains: 120 mM CsF, […], 5 mM EGTA, 5 mM HEPES and pH adjusted to 7.4 with CsOH. […] The ONa extracellular solution used at the end of each experiment for the Late INa and Peak INa assays to measure baseline current contains: 140 mM N-methyl-D-glucamine; 4 mM KCl; 1.8 mM CaCl2; 0.75 mM MgCl2; 5 mM HEPES and pH was adjusted to 7.4 with HCl.
For the Late INa assay, sodium channels are activated every 10 seconds (0.1 Hz) by depolarizing the cell membrane to −20 mV for 250 milliseconds (ms) from a holding potential of −120 mV.
All compounds are tested to determine their activity in blocking the late sodium current. Late INa current is generated by adding 10 μM Tefluthrin (pyrethroid) to the extracellular solution while recording Na currents. […] For some experiments, 50 nM ATX II (sea anemone toxin), another late INa activator, was used to generate the late component. […] Baseline current in the absence of Na^+ ions is measured at the end of each experiment (after two additions of 0 Na solution—see above) and is used to calculate the percent block by compound.

hERG potassium channel = hERG potassium channel (Homo sapiens, UniProt Q12809); assay: hERG screening assay (PatchXpress patch clamp, CHO cells)
Chain of hERG potassium channel (Q12809 whole entry): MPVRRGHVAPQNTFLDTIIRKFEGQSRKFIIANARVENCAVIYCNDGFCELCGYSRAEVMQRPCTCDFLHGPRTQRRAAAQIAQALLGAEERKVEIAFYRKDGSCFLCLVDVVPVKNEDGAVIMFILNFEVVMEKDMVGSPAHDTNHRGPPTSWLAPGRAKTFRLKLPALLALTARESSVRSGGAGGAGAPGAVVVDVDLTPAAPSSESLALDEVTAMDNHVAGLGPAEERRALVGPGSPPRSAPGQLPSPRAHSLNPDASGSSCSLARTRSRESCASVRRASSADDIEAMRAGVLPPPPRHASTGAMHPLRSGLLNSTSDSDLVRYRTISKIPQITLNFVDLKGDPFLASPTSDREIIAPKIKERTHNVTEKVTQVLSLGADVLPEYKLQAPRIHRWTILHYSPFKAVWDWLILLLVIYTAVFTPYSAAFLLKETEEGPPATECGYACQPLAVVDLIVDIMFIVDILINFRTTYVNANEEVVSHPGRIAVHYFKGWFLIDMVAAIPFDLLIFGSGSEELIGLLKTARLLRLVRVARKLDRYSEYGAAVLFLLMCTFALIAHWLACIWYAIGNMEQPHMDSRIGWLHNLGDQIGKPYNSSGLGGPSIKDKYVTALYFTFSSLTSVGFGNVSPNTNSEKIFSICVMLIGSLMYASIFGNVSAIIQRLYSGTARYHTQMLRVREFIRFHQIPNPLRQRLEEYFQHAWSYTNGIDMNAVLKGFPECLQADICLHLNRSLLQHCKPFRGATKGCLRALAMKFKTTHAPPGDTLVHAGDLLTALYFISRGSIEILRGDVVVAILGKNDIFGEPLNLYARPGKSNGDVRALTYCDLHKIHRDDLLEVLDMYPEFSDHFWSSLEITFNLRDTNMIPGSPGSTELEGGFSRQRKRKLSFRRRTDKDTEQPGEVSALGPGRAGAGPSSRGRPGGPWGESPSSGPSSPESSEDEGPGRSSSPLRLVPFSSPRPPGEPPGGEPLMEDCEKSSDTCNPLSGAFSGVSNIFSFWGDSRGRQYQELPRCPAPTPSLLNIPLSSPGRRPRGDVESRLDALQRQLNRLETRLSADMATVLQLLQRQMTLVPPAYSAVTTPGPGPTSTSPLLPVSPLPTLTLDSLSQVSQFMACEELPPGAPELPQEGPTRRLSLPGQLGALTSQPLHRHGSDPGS

L-type calcium channel = L-type calcium channel activity well-plate assay (IMR-32 cells, Ca-4 dye, FlexStation); type: cell-based, human
Experimental: Cell Culture: IMR-32 (human neuroblastoma) cells were obtained from The American Type Culture Collection. The cells were maintained in MEM supplemented with 10% fetal bovine serum, 2 mM of L-glutamine, 100 IU/ml of penicillin, 50 μg/ml of streptomycin, 1% of sodium pyruvate, 1% of sodium bicarbonate and 1% of non-essential amino acid. […] Culture medium was changed every two days and cells were recultivated when they reached 70-80% confluent.
Assay: IMR-32 cells were seeded on a Microtest 96-well Assay Plate (BD FALCON™) at a density of 200,000 cells/well in 200 μl culture medium for overnight. The culture medium was removed, and replaced by 120 μl Ca-4 dye (MDS Analytical Technologies, Sunnyvale, Calif.) in HBSS (1× Hank's Balanced Salt solution plus 20 mM HEPES, pH 7.4) containing 2 mM probenecid. Cells were then incubated for 1 hour at 37° in incubator. Testing compounds were diluted from 5 μM-50 μM in HBSS, and 40 μl were added in cells before assay. […] The inhibition of L-type calcium channel activity by compounds was then calculated.

In the case of “2-methyl-1-phenylpropan-2-yl 5-methyl-7-(naphthalen-1-yl)-4,7-dihydrotetrazolo[1,5-a]pyrimidine-6- [PT-264]”, the “Late INa % blk” value [1] is reported as 53.5%.

Work on `CC1=C(C(=O)OCc2ccc(C(F)(F)F)cc2)C(c2cccc3ccccc23)n2nnnc2N1` (stereo not shown) [PT-051, 4-(trifluoromethyl)benzyl 5-methyl-7-(naphthalen-1-yl)-4,7-dihydrotetrazolo[1,5-a]pyrimidine-6-carboxylate] yielded an inhibition at 10 µM [1] of 16.9%.

`CC1=C(C(=O)O[C@@H](C)c2ccccc2)C(c2cc3ccccc3s2)n2nnnc2N1` (stereo partly drawn) [PT-056, (S)-1-phenylethyl 7-(benzo[b]thiophen-2-yl)-5-methyl-4,7-dihydrotetrazolo[1,5-a]pyrimidine-6-carboxylate] was tested, and the “Late INa % blk” value [1] was 7.8%.

`CC1=C(C(=O)O[C@@H](C)c2ccccc2)C(c2cc3ccccc3s2)n2nnnc2N1` (stereo partly drawn) [PT-057, (S)-1-phenylethyl 7-(benzo[b]thiophen-2-yl)-5-methyl-4,7-dihydrotetrazolo[1,5-a]pyrimidine-6-carboxylate] showed an inhibition at 10 µM [1] of 71%.

`CC1=C(C(=O)O[C@@H](C)c2ccccc2)C(c2cc3ccccc3o2)n2nnnc2N1` (stereo partly drawn) [PT-059, (S)-1-phenylethyl 7-(benzofuran-2-yl)-5-methyl-4,7-dihydrotetrazolo[1,5-a]pyrimidine-6-carboxylate] was tested, and the “Late INa % blk” value [1] was 57.7%, the “hERG Patch Clamp hERG % blk (1 μM test cmpd)” value (hERG potassium channel) was 10% and the “hERG Patch Clamp hERG % blk (10 μM test cmpd)” value (hERG potassium channel) was 66.5%.

For `CCOC(=O)C1=C(C)NC(C)=C(C(=O)OCC)C1c1ccc2c(c1)OCCO2` [PT-109, diethyl 4-(2,3-dihydrobenzo[b][1,4]dioxin-6-yl)-2,6-dimethyl-1,4-dihydropyridine-3,5-dicarboxylate], the inhibition at 10 µM [1] was 76.5%, the “CaL Plate Assay % blk (1 μM test cmpd)” value (L-type calcium channel) was 4% and the “CaL Plate Assay % blk (10 μM test cmpd)” value (L-type calcium channel) was 53%. The “hERG Patch Clamp hERG % blk (1 μM test cmpd)” value (hERG potassium channel) was 16% and the “hERG Patch Clamp hERG % blk (10 μM test cmpd)” value (hERG potassium channel) was 38.5%.

With `CC1=C(C(=O)OC(C)C)C(c2c[nH]nc2-c2ccc(F)cc2)C(C(=O)OC(C)C)=C(C)N1` [PT-128, diisopropyl 4-(3-(4-fluorophenyl)-1H-pyrazol-4-yl)-2,6-dimethyl-1,4-dihydropyridine-3,5-dicarboxylate] the inhibition at 10 µM [1] was 34.1%.

With `CC1=C(C(=O)N2CCC(c3ccccc3)CC2)C(c2ccsc2)C2=C(CCCC2=O)N1` (stereo not shown) [PT-163, 2-methyl-3-(4-phenylpiperidine-1-carbonyl)-4-(thiophen-3-yl)-4,6,7,8-tetrahydroquinolin-5(1H)-one] the “effect on late sodium current” value [1] was “potentiated late sodium current”, the “CaL Plate Assay % blk (1 μM test cmpd)” value (L-type calcium channel) was 5% and the “CaL Plate Assay % blk (10 μM test cmpd)” value (L-type calcium channel) was 17%. The “hERG Patch Clamp hERG % blk (1 μM test cmpd)” value (hERG potassium channel) was 15% and the “hERG Patch Clamp hERG % blk (10 μM test cmpd)” value (hERG potassium channel) was 53.5%.

For `CC1=C(C(=O)N2CCN(c3ccccc3)CC2)C(c2ccc3ccccc3c2)C2=C(CCCC2=O)N1` (stereo not shown) [PT-165, 2-methyl-4-(naphthalen-2-yl)-3-(4-phenylpiperazine-1-carbonyl)-4,6,7,8-tetrahydroquinolin-5(1H)-one], the “effect on late sodium current” value [1] was “potentiated late sodium current”, the “CaL Plate Assay % blk (1 μM test cmpd)” value (L-type calcium channel) was 0% and the “CaL Plate Assay % blk (10 μM test cmpd)” value (L-type calcium channel) was 2%. The “hERG Patch Clamp hERG % blk (1 μM test cmpd)” value (hERG potassium channel) was 30.5% and the “hERG Patch Clamp hERG % blk (10 μM test cmpd)” value (hERG potassium channel) was 64.5%.

In the case of `CC1=C(C(=O)N2CCN(c3ccccc3)CC2)C(c2ccsc2)C2=C(CCCC2=O)N1` (stereo not shown) [PT-166, 2-methyl-3-(4-phenylpiperazine-1-carbonyl)-4-(thiophen-3-yl)-4,6,7,8-tetrahydroquinolin-5(1H)-one], the “effect on late sodium current” value [1] is reported as “potentiated late sodium current”.

With `CC1=C(C(=O)Nc2c(C)cccc2C)C(c2ccsc2)C2=C(CCCC2=O)N1` (stereo not shown) [PT-180, N-(2,6-dimethylphenyl)-2-methyl-5-oxo-4-(thiophen-3-yl)-1,4,5,6,7,8-hexahydroquinoline-3-carboxamide] the inhibition at 10 µM [1] was -4.7%.

`CC1=C(C(=O)OCCc2nnn[nH]2)C(c2cccc3ccccc23)n2nnnc2N1` (stereo not shown) [PT-247, 2-(1H-tetrazol-5-yl)ethyl 5-methyl-7-(naphthalen-1-yl)-4,7-dihydrotetrazolo[1,5-a]pyrimidine-6-carboxylate] showed an inhibition at 10 µM [1] of 0.3%.

Work on `CC1=C(C(=O)N2CCC(c3ccc(C(N)=O)cc3)CC2)C(c2cccc3ccccc23)C2=C(CCCC2=O)N1` (stereo not shown) [PT-287, 4-(1-(2-methyl-4-(naphthalen-1-yl)-5-oxo-1,4,5,6,7,8-hexahydroquinoline-3-carbonyl)piperidin-4-yl)benzamide] yielded an inhibition at 10 µM [1] of 8.6%.

For `COC(=O)C1=C(C)Nc2nnnn2C1c1ccccc1` (stereo not shown) [PT-514, methyl 5-methyl-7-phenyl-4,7-dihydrotetrazolo[1,5-a]pyrimidine-6-carboxylate], the inhibition at 10 µM [1] was 6%.

In the case of `CC1=C(C(=O)OCc2ccccc2)C(c2ccccc2-c2ccc(NS(C)(=O)=O)cc2)n2nnnc2N1` (stereo not shown) [PT-530, benzyl 5-methyl-7-(4′-(methylsulfonamido)biphenyl-2-yl)-4,7-dihydrotetrazolo[1,5-a]pyrimidine-6-carboxylate], the inhibition at 10 µM [1] is reported as 88.3%, the “hERG Patch Clamp hERG % blk (1 μM test cmpd)” value (hERG potassium channel) is reported as 13% and the “hERG Patch Clamp hERG % blk (10 μM test cmpd)” value (hERG potassium channel) is reported as 48%.

`CC1=C(C(=O)OCc2ccccc2Br)C(c2c(Cl)cccc2Cl)n2nnnc2N1` (stereo not shown) [PT-531, 2-bromobenzyl 7-(2,6-dichlorophenyl)-5-methyl-4,7-dihydrotetrazolo[1,5-a]pyrimidine-6-carboxylate] was tested, and the inhibition at 10 µM [1] was 51.2%.

`CC1=C(C(=O)OCc2ccccc2Br)C(c2c(Cl)cccc2Cl)n2nnnc2N1Cc1nnn[nH]1` (stereo not shown) [PT-532, 2-bromobenzyl 4-((1H-tetrazol-5-yl)methyl)-7-(2,6-dichlorophenyl)-5-methyl-4,7-dihydrotetrazolo[1,5-a]pyrimidine-6-carboxylate] was tested, and the inhibition at 10 µM [1] was 35.6%.

In the case of `COC(=O)C1=C(C)N(CC(=O)O)c2nnnn2C1c1sc2ccccc2c1Br` (stereo not shown) [PT-533, 2-(7-(3-bromobenzo[b]thiopben-2-yl)-6-(methoxycarbonyl)-5-methyltetrazolo[1,5-a]pyrimidin-4(7H)-yl)acetic acid], the “Late INa % blk” value [1] is reported as 12%.

For `COC(=O)C1=C(C)N(Cc2nnn[nH]2)c2nnnn2C1c1sc2ccccc2c1Br` (stereo not shown) [PT-534, methyl 4-((1H-tetrazol-5-yl)methyl)-7-(3-bromobenzo[b]thiophen-2-yl)-5-methyl-4,7-dihydrotetrazolo[1,5-a]pyrimidine-6-carboxylate], the inhibition at 10 µM [1] was 18.2%.

Work on `COC(=O)c1ccc(C2CCN(C(=O)C3=C(C)NC4=C(C(=O)CCC4)C3c3cccc4ccccc34)CC2)cc1` (stereo not shown) [PT-535, methyl 4-(1-(2-methyl-4-(naphthalen-1-yl)-5-oxo-1,4,5,6,7,8-hexahydroquinoline-3-carbonyl)piperidin-4-yl)benzoate] yielded an inhibition at 10 µM [1] of 4.2%.

In the case of “H-furo[3,4-e]pyrazolo[3,4-b]pyridin-5(4H)-one [PT-079]”, the “Late INa % blk” value [1] is reported as 49%, the “hERG Patch Clamp hERG % blk (1 μM test cmpd)” value (hERG potassium channel) is reported as 57.5% and the “hERG Patch Clamp hERG % blk (10 μM test cmpd)” value (hERG potassium channel) is reported as 96.5%.

With “H-indol-5-yl)phenyl)-5-methyl-4,7-dihydrotetrazolo[1,5-a]pyrimidine-6-carboxylate [PT-505]” the “Late INa % blk” value [1] was 69.6%.
